Target: T1, factor IXa (Homo sapiens, UniProt P00740)
T1 construct: purchased Calbiochem (Merck KGaA) 233290
Experiment: Factor IXa enzyme assay (chromogenic substrate PEFA 3107)
Format: biochemical
Conditions: factor IXa 277 nM final, pH 7.4, 15 min preincubation at room temperature, read at 405 nm, duplicate determination
Procedure: The prepared substances from the examples were tested for inhibition of the enzymatic activity of FIXa using the substrate PEFA 3107 (Pentapharm/Loxo; via S. Black GmbH, Baumstrasse 41, 47198 Duisburg, Germany; Pr. No. 095-20) and factor IXa (Calbiochem, Merck KGaA markets Calbiochem in Germany, Life Science & Analytics, 64293 Darmstadt; Pr. No. 233290). In this method, 28 μl of test buffer (50 mM α,α,α-tris(hydroxymethyl)methylamine (TRIS), 100 mM NaCl, 5 mM CaCl2, 0.1% bovine serum albumin, pH 7.4) and 10 μl of factor IXa (277 nM final concentration in the test batch) were added to 2 μl of 10 mM dimethyl sulfoxide solution of the respective test substance, and the mixture was incubated for 15 minutes at room temperature in a 96 half-well microtiter plate. The enzyme reaction was started by addition of 10 μl of substrate (1 mM stock solution in water). The time course of the reaction was monitored at 405 nm in a microtiter plate reader (SpectraMax plus 384; Molecular Devices) for 15 minutes.
The IC50 was calculated from the averaged values (duplicate determination) of a dilution series of the test substance with the aid of the software Grafit 4 (Erithacus Software, UK). The inhibition constants (Ki) were calculated according to the Cheng Prusoff equation Ki=IC50/(1+(S/Km), where S=concentration of the test substrate in the test and Km=Michaelis-Menten constant.

T1 sequence (P00740 227-461 limits assumed): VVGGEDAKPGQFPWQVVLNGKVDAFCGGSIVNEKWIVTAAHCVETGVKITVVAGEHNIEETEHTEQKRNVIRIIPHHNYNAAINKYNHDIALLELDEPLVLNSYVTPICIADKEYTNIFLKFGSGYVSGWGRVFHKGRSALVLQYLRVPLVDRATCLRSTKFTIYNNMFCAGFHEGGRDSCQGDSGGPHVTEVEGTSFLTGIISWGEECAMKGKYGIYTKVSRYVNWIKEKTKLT
T1 sequence (P00740 47-191 partner limits assumed): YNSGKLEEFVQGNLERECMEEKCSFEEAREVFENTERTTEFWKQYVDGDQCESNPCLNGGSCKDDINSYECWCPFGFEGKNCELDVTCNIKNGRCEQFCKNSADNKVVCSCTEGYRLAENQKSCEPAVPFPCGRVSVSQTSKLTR

| IC50 [nM] | Compound |
| --- | --- |
| 730 | CCc1ccc(C(=O)NC(c2ccccc2)C(O)C(=O)Nc2ccc3nc(N)[nH]c3c2)s1 (stereo not drawn) [Example 68, 5-Ethylthiophene-2-carboxylic acid [2-(2-amino-3H-benzimidazol-5-ylcarbamoyl)-2-hydroxy-1-phenylethyl]amide] |
| 170 | COc1cc(OC)cc(C(NC(=O)c2ccc(C(C)C)cc2)C(O)C(=O)Nc2ccc3nc(N)[nH]c3c2)c1 (stereo not drawn) [Example 134, N-[2-(2-Amino-3H-benzimidazol-5-ylcarbamoyl)-1-(3,5-dimethoxyphenyl)-2-hydroxyethyl]-4-iso-propylbenzamide] |
| 280 | CC(C)c1ccc(C(=O)NC(c2ccccc2)C(O)C(=O)Nc2ccc3nc(N)[nH]c3c2)cc1 (stereo not drawn) [Example 17, N-[2-(2-Amino-3H-benzimidazol-5-ylcarbamoyl)-2-hydroxy-1-phenylethyl]-4-isopropylbenzamide] |
| 140 | CCc1ccc(C(=O)NC(c2ccccc2)C(O)C(=O)Nc2ccc3c(N)nccc3c2)cc1 (stereo not drawn) [Example 87, N-[2-(1-Aminoisoquinolin-6-ylcarbamoyl)-2-hydroxy-1-phenylethyl]-4-ethylbenzamide] |
| 1340 | Nc1nc2ccc(NC(=O)C(O)C(NC(=O)c3ccc(N4CCOCC4)cc3)c3ccccc3)cc2[nH]1 (stereo not drawn) [Example 53, N-[2-(2-Amino-3H-benzimidazol-5-ylcarbamoyl)-2-hydroxy-1-phenylethyl]-4-morpholin-4-yl-benzamide] |
| 570 | Nc1nc2ccc(NC(=O)C(O)C(NC(=O)c3ccc(-c4cccs4)s3)c3ccccc3)cc2[nH]1 (stereo not drawn) [Example 81, [2,2′]Bithiophenyl-5-carboxylic acid [2-(2-amino-3H-benzimidazol-5-ylcarbamoyl)-2-hydroxy-1-phenylethyl]amide] |
